Here are results for 13 molecules from patent US6013651A, “Meta-azacyclic amino benzoic acid compounds and derivatives thereof” (G. D. Searle & Co., priority 1998, dated 2000).

For orientation: pIC50 means −log10 of the IC50, conventionally taken in molar units.

Experiment [1] concerns the target T1, human vitronectin receptor (αv β3) (Homo sapiens, UniProt P05106+P06756).
T1 construct: purified from human placenta; from tissue; host or cells: human placenta
The experiment can be described thus: Vitronectin adhesion assay, solid phase receptor assay (inhibition of biotinylated vitronectin binding to purified αvβ3). The protocol: Human vitronectin receptor (αv β3) was purified from human placenta as previously described [Pytela et al., Methods in Enzymology, 144:475-489 (1987)]. Human vitronectin was purified from fresh frozen plasma as previously described [Yatohgo et al., Cell Structure and Function, 13:281-292 (1988)]. Biotinylated human vitronectin was prepared by coupling NHS-biotin from Pierce Chemical Company (Rockford, Ill.) to purified vitronectin as previously described [Charo et al., J. Biol. Chem., 266(3):1415-1421 (1991)]. Assay buffer, OPD substrate tablets, and RIA grade BSA were obtained from Sigma (St. Louis, Mo.). Anti-biotin antibody was obtained from Calbiochem (La Jolla, Calif.). Linbro microtiter plates were obtained from Flow Labs (McLean, Va.). ADP reagent was obtained from Sigma (St. Louis, Mo.).
This assay was essentially the same as previously reported [Niiya et al., Blood, 70:475-483 (1987)]. The purified human vitronectin receptor (αv β3) was diluted from stock solutions to […] in tris-buffered saline containing 1.0 mM Ca^++, Mg^++, and Mn^++, pH 7.4 (TBS^+++). The diluted receptor was immediately transferred to Linbro microtiter plates at 100 µL/well (100 ng receptor/well). The plates were sealed and incubated overnight at 4° C. to allow the receptor to bind to the wells. All remaining steps were at room temperature. The assay plates were emptied and 200 µL of 1% RIA grade BSA in TBS^+++ (TBS^+++ /BSA) were added to block exposed plastic surfaces. Following a 2 hour incubation, the assay plates were washed with TBS^+++ using a 96 well plate washer. Logarithmic serial dilution of the test compound and controls were made starting at a stock concentration of 2 mM and using 2 nM biotinylated vitronectin in TBS^+++ /BSA as the diluent. This premixing of labeled ligand with test (or control) ligand, and subsequent transfer of 50 µL aliquots to the assay plate was carried out with a CETUS Propette robot; the final concentration of the labeled ligand was 1 nM and the highest concentration of test compound was 1.0×10^-4 M. The competition occurred for two hours after which all wells were washed with a plate washer as before. Affinity purified horseradish peroxidase labeled goat anti-biotin antibody was diluted 1:3000 in TBS^+++ /BSA and 125 µL were added to each well. After 30 minutes, the plates were washed and incubated with OPD/H2 O substrate in 100 mM/L Citrate buffer, pH 5.0. The plate was read with a microtiter plate reader at a wavelength of 450 nm and when the maximum-binding control wells reached an absoround bottomance of about 1.0, the final A450 were recorded for analysis. The data were analyzed using a macro written for use with the EXCEL spreadsheet program. The mean, standard deviation, and % CV were determined for duplicate concentrations. The mean A450 values were normalized to the mean of four maximum-binding controls (no competitor added)(B-MAX). The normalized values were subjected to a four parameter curve fit algorithm [Rodbard et al., Int.

In experiment [2] the target is T2, human fibrinogen receptor (αIIb β3) (Homo sapiens, UniProt P05106+P08514).
T2 construct: purified from outdated platelets; from tissue; host or cells: outdated human platelets
T2 sequence (P08514 32-887 limits assumed): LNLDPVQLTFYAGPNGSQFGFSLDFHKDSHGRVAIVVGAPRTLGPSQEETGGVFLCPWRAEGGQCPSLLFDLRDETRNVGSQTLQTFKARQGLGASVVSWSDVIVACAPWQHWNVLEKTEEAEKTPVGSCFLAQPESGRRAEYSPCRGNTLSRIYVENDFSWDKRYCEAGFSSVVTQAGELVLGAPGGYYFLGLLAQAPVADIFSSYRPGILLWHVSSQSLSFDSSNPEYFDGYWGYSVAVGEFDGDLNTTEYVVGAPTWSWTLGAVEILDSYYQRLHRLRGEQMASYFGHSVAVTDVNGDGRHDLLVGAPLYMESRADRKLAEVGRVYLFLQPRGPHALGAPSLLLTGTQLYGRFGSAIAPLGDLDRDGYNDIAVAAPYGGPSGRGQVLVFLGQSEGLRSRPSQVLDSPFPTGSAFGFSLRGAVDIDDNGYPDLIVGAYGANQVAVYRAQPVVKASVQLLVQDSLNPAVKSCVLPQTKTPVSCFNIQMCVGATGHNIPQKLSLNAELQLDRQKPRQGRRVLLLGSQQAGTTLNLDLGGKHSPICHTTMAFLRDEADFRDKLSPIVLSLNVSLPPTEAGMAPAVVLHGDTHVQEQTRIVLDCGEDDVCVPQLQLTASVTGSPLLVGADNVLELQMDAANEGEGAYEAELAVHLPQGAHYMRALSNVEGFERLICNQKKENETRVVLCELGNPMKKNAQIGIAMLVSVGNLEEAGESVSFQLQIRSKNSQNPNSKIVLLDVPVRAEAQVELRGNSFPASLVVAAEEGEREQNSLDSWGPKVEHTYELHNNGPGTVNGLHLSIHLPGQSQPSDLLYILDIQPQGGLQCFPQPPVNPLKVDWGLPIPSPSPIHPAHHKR
T2 sequence (P08514 891-1039 limits assumed): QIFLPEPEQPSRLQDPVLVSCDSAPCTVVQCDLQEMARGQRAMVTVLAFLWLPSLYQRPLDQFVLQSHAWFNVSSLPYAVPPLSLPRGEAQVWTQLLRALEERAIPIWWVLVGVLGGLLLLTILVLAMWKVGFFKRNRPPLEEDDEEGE
T2 sequence (P05106 27-788): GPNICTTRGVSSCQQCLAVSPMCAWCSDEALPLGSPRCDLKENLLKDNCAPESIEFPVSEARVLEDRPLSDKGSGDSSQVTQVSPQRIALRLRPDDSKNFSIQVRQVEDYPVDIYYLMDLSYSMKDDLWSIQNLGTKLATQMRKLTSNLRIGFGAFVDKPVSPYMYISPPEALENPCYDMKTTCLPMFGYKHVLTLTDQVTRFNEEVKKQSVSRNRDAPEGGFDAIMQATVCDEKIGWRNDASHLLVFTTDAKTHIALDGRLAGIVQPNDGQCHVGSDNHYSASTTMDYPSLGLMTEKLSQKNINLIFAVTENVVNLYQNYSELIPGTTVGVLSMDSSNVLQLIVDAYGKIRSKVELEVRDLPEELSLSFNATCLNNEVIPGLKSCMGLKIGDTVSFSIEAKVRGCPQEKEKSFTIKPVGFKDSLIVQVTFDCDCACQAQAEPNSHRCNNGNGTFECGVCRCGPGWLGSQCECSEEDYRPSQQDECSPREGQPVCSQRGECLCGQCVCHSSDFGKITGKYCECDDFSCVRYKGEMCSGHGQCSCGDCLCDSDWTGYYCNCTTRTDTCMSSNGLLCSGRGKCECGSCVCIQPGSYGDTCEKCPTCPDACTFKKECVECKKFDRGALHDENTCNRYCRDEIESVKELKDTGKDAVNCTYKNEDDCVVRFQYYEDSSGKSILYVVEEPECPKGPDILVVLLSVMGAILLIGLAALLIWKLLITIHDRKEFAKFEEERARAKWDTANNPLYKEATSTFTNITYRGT
The experiment can be described thus: Purified IIb/IIIa receptor assay, solid phase receptor assay (inhibition of biotinylated vitronectin binding). As to conditions: 1 nM biotinylated human vitronectin, pH 7.4, 2 h competition. From the text:
Human fibrinogen receptor (αIIb β3) was purified from outdated platelets. (Pytela, R., Pierschbacher, M. D., Argraves, S., Suzuki, S., and Rouslahti, E. "Arginine-Glycine-Aspartic acid adhesion receptors", Methods in Enzymology 144(1987):475-489.) Human vitronectin was purified from fresh frozen plasma as described in Yatohgo, T., Izumi, M., Kashiwagi, H., and Hayashi, M., "Novel purification of vitronectin from human plasma by heparin affinity chromatography," Cell Structure and Function 13(1988):281-292. Biotinylated human vitronectin was prepared by coupling NHS-biotin from Pierce Chemical Company (Rockford, Il.) to purified vitronectin as previously described. (Charo, I. F., Nannizzi, L., Phillips, D. R., Hsu, M. A., Scaround bottomorough, R. M., "Inhibition of fibrinogen binding to GP IIIb/IIIa by a GP IIIa peptide", J. Biol. Chem. 266(3)(1991): 1415-1421.) Assay buffer, OPD substrate tablets, and RIA grade BSA were obtained from Sigma (St. Louis, Mo.). Anti-biotin antibody was obtained from Calbiochem (La Jolla, Calif.). Linbro microtiter plates were obtained from Flow Labs (McLean, Va.). ADP reagent was obtained from Sigma (St. Louis, Mo.).
This assay is essentially the same reported in Niiya, K., Hodson, E., Bader, R., Byers-Ward, V. Koziol, J. A., Plow, E. F. and Ruggeri, Z. M., "Increased surface expression of the membrane glycoprotein IIb/IIIa complex induced by platelet activation: Relationships to the binding of fibrinogen and platelet aggregation", Blood 70(1987):475-483. The purified human fibrinogen receptor (αIIb β3) was diluted from stock solutions to 1.0 μg/mL in Tris-buffered saline containing 1.0 mM Ca^++, Mg^++, and Mn^++, pH 7.4 (TBS^+++). The diluted receptor was immediately transferred to Linbro microtiter plates at 100 μL/well (100 ng receptor/well). The plates were sealed and incubated overnight at 4° C. to allow the receptor to bind to the wells. All remaining steps were at room temperature. The assay plates were emptied and 200 μL of 1% RIA grade BSA in TBS^+++ (TBS^+++ /BSA) were added to block exposed plastic surfaces. Following a 2 hour incubation, the assay plates were washed with TBS^+++ using a 96 well plate washer. Logarithmic serial dilution of the test compound and controls were made starting at a stock concentration of 2 mM and using 2 nM biotinylated vitronectin in TBS^+++ /BSA as the diluent. This premixing of labeled ligand with test (or control) ligand, and subsequent transfer of 50 μL aliquots to the assay plate was carried out with a CETUS Propette robot; the final concentration of the labeled ligand was 1 nM and the highest concentration of test compound was 1.0×10^-4 M. The competition occurred for two hours after which all wells were washed with a plate washer as before. Affinity purified horseradish peroxidase labeled goat anti-biotin antibody was diluted 1:3000 in TBS^+++ /BSA and 125 μL were added to each well. After 30 minutes, the plates were washed and incubated with […]/H2 O2 substrate in 100 mM/L citrate buffer, pH 5.0. The plate was read with a microtiter plate reader at a wavelength of 450 nm and when the maximum-binding control wells reached an absoround bottomance of about 1.0, the final A450 were recorded for analysis. The data were analyzed using a macro written for use with the EXCEL™ spreadsheet program. The mean, standard deviation, and % CV were determined for duplicate concentrations. The mean A450 values were normalized to the mean of four maximum-binding controls (no competitor added)(B-MAX). The normalized values were subjected to a four parameter curve fit algorithm, [Robard et al., Int.

[3] abbreviates: 1 nM biotinylated human vitronectin, purified receptor, pH 7.4, 2 h competition, read-out: αv β3 IC50.

pIC50: −log10 of the molar value. Counter-ions that a name gives are not always drawn. Like-named read-outs stand apart in the source and are kept apart here.

T1 sequence (P06756 31-889 limits assumed): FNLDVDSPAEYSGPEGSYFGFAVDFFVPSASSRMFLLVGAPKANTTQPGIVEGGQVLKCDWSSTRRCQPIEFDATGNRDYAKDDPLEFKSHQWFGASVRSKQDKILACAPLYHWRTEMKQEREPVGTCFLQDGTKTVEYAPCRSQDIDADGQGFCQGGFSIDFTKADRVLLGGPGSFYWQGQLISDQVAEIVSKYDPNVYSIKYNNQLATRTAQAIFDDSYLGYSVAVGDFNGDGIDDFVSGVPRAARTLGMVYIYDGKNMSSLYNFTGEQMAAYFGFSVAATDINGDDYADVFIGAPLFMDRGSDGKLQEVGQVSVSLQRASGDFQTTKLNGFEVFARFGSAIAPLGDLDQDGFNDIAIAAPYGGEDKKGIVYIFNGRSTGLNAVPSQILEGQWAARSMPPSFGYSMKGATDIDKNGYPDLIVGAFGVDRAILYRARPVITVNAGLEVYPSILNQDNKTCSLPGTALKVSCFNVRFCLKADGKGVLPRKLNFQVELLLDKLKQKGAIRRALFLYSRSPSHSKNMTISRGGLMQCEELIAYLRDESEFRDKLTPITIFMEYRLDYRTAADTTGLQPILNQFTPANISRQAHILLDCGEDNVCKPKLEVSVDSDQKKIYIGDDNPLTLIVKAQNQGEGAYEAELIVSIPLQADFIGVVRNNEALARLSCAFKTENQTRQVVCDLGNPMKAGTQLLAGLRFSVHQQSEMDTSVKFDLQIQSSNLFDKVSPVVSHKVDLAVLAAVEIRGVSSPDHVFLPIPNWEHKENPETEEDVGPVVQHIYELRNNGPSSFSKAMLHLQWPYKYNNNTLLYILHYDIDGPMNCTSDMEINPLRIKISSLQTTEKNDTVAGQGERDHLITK
T1 sequence (P06756 891-1048 limits assumed): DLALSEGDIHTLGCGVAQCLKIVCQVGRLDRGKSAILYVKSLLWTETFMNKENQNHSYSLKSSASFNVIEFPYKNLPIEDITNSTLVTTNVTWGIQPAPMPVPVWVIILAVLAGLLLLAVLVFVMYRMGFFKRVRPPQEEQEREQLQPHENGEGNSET
T1 sequence (P05106 27-788): as the sequence (P05106 27-788) above

Regarding `O=C(O)CC(NC(=O)CNC(=O)c1cc(O)cc(NC2=NCC(O)CN2)c1)c1cc(Cl)cc(Br)c1O` (racemic) [Example 1, (±) 3-bromo-5-chloro-2-hydroxy-β-[[2-[[[3-hydroxy-5-[(1,4,5,6-tetrahydro-5-hydroxypyrimidin-2-yl)amino]phenyl]carbonyl]amino]acetyl]amino]benzenepropanoic acid, trifluroacetate salt], the pIC50 in experiment [1] (setting [3]) was 9.06; in experiment [2], 6.51.
For `O=C(O)C[C@H](NC(=O)CNC(=O)c1cc(O)cc(NC2=NCC(O)CN2)c1)c1cc(Cl)cc(Br)c1O` (stereo partly shown) [9 · HCl], in that order: 9.09 and 6.65.
For `O=C(O)CC(NC(=O)CNC(=O)c1cc(O)cc(NC2=NCC(O)CN2)c1)c1cc(Cl)cc(Cl)c1O` (stereo not shown) [Example 2] the same measures were 8.98 and 6.37.
For `O=C(O)CC(NC(=O)CNC(=O)c1cc(O)cc(NC2=NCC(O)CN2)c1)c1cc(Br)cc(I)c1O` (stereo not shown) [Example 3], in that order: 7.63 and 5.61.
With `O=C(O)CC(NC(=O)CNC(=O)c1cc(O)cc(NC2=NCC(O)CN2)c1)c1cc(Br)cc(Cl)c1O` (stereo not shown) [Example 4], the pIC50 in experiment [1] (setting [3]) is 8.69; in experiment [2], 6.24.
For `O=C(O)CC(NC(=O)CNC(=O)c1cc(O)cc(NC2=NCC(O)CN2)c1)c1cc(Cl)cc(I)c1O` (stereo not shown) [Example 5] the same measures were 8.67 and 6.13.
For `O=C(O)CC(NC(=O)CNC(=O)c1cc(O)cc(NC2=NCC(O)CN2)c1)c1cc(Br)cc(Br)c1O` (stereo not shown) [Example 6], in that order: 8.19 and 6.04.
For `O=C(O)C[C@H](NC(=O)CNC(=O)c1cc(O)cc(N=C2NCC(O)CN2)c1)c1cc(Br)cc(Cl)c1O` (stereo partly shown) [Example 7] the same measures were 9.00 and 6.58.
`O=C(O)C[C@H](NC(=O)CNC(=O)c1cc(O)cc(N=C2NCC(O)CN2)c1)c1cc(Cl)cc(Cl)c1O` (stereo partly drawn) [Example 8, (S) 3,5-dichloro-2-hydroxy-β-[[2-[[[3-hydroxy-5-[(1,4,5,6-tetrahydro-5-hydroxypyrimidin-2-yl)amino]phenyl]carbonyl]amino]acetyl]amino]-benzenepropanoic acid, monohydrochloride monohydrate]: the pIC50 in experiment [1] (setting [3]) was 9.40; in experiment [2], 6.88.
For `O=C(O)C[C@H](NC(=O)CNC(=O)c1cc(O)cc(NC2=NCC(O)CN2)c1)c1cc(Cl)cc(Br)c1O` (stereo partly drawn) [Example 9, (S) 3-bromo-5-chloro-2-hydroxy-β-[[2-[[[3-hydroxy-5-[(1,4,5,6-tetrahydro-5-hydroxypyrimidin-2-yl)amino]phenyl]carbonyl]amino]acetyl]amino]-benzenepropanoic acid, trifluoroacetate salt] the same measures were 9.43 and 6.41.
For `O=C(O)C[C@H](NC(=O)CNC(=O)c1cc(O)cc(NC2=NCC(O)CN2)c1)c1cc(Br)cc(Br)c1O` (stereo partly shown) [Example 10], in that order: 8.65 and 6.19.
Consider `O=C(O)C[C@H](NC(=O)CNC(=O)c1cc(O)cc(NC2=NCC(O)CN2)c1)c1cc(Br)cc(I)c1O` (stereo partly shown) [Example 12], for which the negative-log IC50 (pIC50) in experiment [1] (setting [3]) is 8.02; in experiment [2], 5.97.
In the case of `N=C(N)NCCCCC(=O)NCC(=O)NC(CC(=O)O)c1cccnc1` (stereo not drawn) [β-[[2-[[5-[(aminoiminomethyl)-amino]-1-oxopentyl]amino]-1-oxoethyl]amino]-3-pyridinepropanoic acid, reference compound], in experiment [1] (positive control included on each plate, read-out: αv β3 antagonist IC50 of positive control), the pIC50 is 8.00 to 8.52.
